Assay [1] deals with Bromodomain adjacent to zinc finger domain protein 2B (Homo sapiens, UniProt Q9UIF8).
Description: Binding affinity to BAZ2B bromodomain (unknown origin) assessed as dissociation constant by BROMOscan technology
Assay [2] addresses von Hippel-Lindau disease tumor suppressor/Bromodomain adjacent to zinc finger domain protein 2A (Homo sapiens, UniProt Q9UIF9+P40337). Put plainly: PROTAC activity at BAZ2A/VHL in human PC-3 cells assessed as degradation after 4 hrs by Western blot analysis.
The target of assay [3] is von Hippel-Lindau disease tumor suppressor/Bromodomain adjacent to zinc finger domain protein 2B (Homo sapiens, UniProt Q9UIF8+P40337). Put plainly: PROTAC activity at BAZ2B/VHL in human PC-3 cells assessed as degradation after 4 hrs by Western blot analysis.
The target of assay [4] is Bromodomain adjacent to zinc finger domain protein 2A (Homo sapiens, UniProt Q9UIF9).
Description: Binding affinity to BAZ2A bromodomain (unknown origin) assessed as dissociation constant by BROMOscan technology
Assay [5] deals with von Hippel-Lindau disease tumor suppressor/Bromodomain adjacent to zinc finger domain protein 2A (Homo sapiens, UniProt P40337+Q9UIF9). Put plainly: PROTAC activity at BAZ2A/VHL in human PC-3 cells assessed as BAZ2A degradation after 4 hrs by Western blot analysis.
Assay [6] can be described thus: Induction of BAZ2A level in human PC-3 cells measured after 4 hrs by Western blot analysis. Particulars: PC-3, 4 h.

pEC50, pKd: −log10 of the molar value.

`Cn1cc(CCn2c(CO)nc(-c3cnn(C)c3)c2-c2ccc(C#N)cc2)cn1` had a pKd in assay [1] of 8.04.
`COCc1nc(-c2cnn(C)c2)c(-c2ccc(C#N)cc2)n1CCc1cnn(C)c1`: the pKd in assay [1] was 8.00.
In the case of `Cc1ncsc1-c1ccc(CNC(=O)[C@@H]2C[C@@H](O)CN2C(=O)[C@@H](NC(=O)C2(F)CC2)C(C)(C)SC[C@H]2CC[C@H](COCc3nc(-c4cnn(C)c4)c(-c4ccc(C#N)cc4)n3CCc3cnn(C)c3)CC2)cc1`, the DC50 was 0.18 µM in assay [2] and 0.25 µM in assay [3]. Moreover, the pKd was 8.32 in assay [4] and 7.80 in assay [1].
Consider `Cc1ncsc1-c1ccc(CNC(=O)[C@@H]2C[C@@H](O)CN2C(=O)[C@@H](NC(=O)C2(F)CC2)C(C)(C)C)c(OC[C@H]2CC[C@H](COCc3nc(-c4cnn(C)c4)c(-c4ccc(C#N)cc4)n3CCc3cnn(C)c3)CC2)c1`, for which the DC50 in assay [3] is 0.019 µM. Also, the pEC50 in assay [5] and in assay [6] was 7.46 each time. Further, the pKd in assay [4] was 8.33; in assay [1] it was 7.29.

Source of the values: ChEMBL document CHEMBL6103605, “Discovery of First-in-Class BAZ2A/B and BAZ2B-Selective Degraders” (ACS Med Chem Lett, 2025).
